# Laboratory results as given in patent publication US20130225830A1, “POLYMORPHS OF FEBUXOSTAT” (MAPI PHARMA LIMITED, priority 2010, published 2013).
# Where two headings read alike, the source gives them in different places.
# Key:
# Assay type in all cases: physicochemical
# [1] = Hygroscopicity measurements (DVS sorption/desorption profiles); conditions: 25° C.
# Procedure: The sorption/desorption profiles of the forms of the present invention were tested at 25° C. under 0-90% relative humidity. The forms of the present invention were classified according to the following criteria: Deliquescent: Sufficient water is absorbed to form a liquid. […] Hygroscopic: Increase in mass is less than 15% and equal to or greater than 2%. Slightly hygroscopic: Increase in mass is less than 2% and equal to or greater than 0.2%. Non-hygroscopic: Increase in mass is less than 0.2%.
# [2] = Aqueous solubility measurements; conditions: for solubility at 24 h: 25 °C, thermodynamic from solid, read-out: HPLC solubility; for pH: final pH of saturated solution
# Procedure: Testing media: water, pH 1.2, 4.5, 6.8, 7.4 USP buffers, 0.01 N HCl, 0.1 N HCl, SGF, FaSSIF, FeSSIF.
# The various testing media were prepared as follows:
# pH 1.2 (USP): 50 mL of 0.2 M potassium chloride solution were placed in a 200 mL volumetric flask to which 85.0 mL of 0.2M hydrochloric acid solution were added followed by the addition of water to obtain the required volume.
# pH 4.5 (USP): 50 mL of 0.2 M potassium biphthalate solution were placed in a 200 mL volumetric flask to which 8.8 mL of 0.2 M sodium hydroxide solution were added followed by the addition of water to obtain the required volume.
# pH 6.8 (USP): 50 mL of 0.2 M monobasic potassium phosphate solution were placed in a 200 mL volumetric flask to which 22.4 mL of 0.2 M sodium hydroxide solution were added followed by the addition of water to obtain the required volume.
# pH 7.4 (USP): 50 mL of 0.2 M monobasic potassium phosphate solution were placed in a 200 mL volumetric flask to which 39.1 mL of 0.2 M sodium hydroxide solution were added followed by the addition of water to obtain the required volume.
# Simulated gastric fluid (SGF): 0.01 N HCl, 0.05% sodium lauryl sulfate, and 0.2% NaCl.
# Fasted state simulated intestinal fluid (FaSSIF): 29 mM NaH2PO4, 3 mM Na taurocholate, 0.75 mM lecithin, 103 mM NaCl, and NaOH to obtain pH 6.5.
# Fed state simulated intestinal fluid (FeSSIF): 144 mM acetic acid, 15 mM Na taurocholate, 3.75 mM lecithin, 204 mM NaCl, and NaOH to obtain pH 5.0.
# Testing procedure: The tested febuxostat form was placed in each of the different media and was kept shaken for 24 hours at 25° C. Then, the saturated solution was filtered. The concentration of the febuxostat form in filtrate was determined by HPLC. The final pH was then tested. The test was conducted in duplication.
# [3] = Bulk and tapped density measurements
# Procedure: Bulk density testing: A febuxostat form in an amount which is sufficient to complete the test was passed through a 1.0 mm (No. 18) screen to break up agglomerates that may have formed during storage. The febuxostat form was then weighed (M) and the powder was added into a 10 mL graduated cylinder. The powder was carefully leveled without compacting, and the unsettled apparent volume, Vo, was read. The bulk density, in g per mL, was calculated by the formula: Bulk Density=M/Vo Tapped density testing: A febuxostat form in an amount which is sufficient to complete the test was passed through a 1.0 mm (No. 18) screen to break up agglomerates that may have formed during storage. The febuxostat form was then weighed and the powder was added into a 10 mL graduated cylinder. The powder was carefully leveled without compacting. The cylinder was tapped 500 times initially and the tapped volume, Va, was measured to the nearest graduated unit. The tapping was then repeated for additional 750 times and the tapped volume, Vb, was measured to the nearest graduated unit. If the difference between the two volumes was less than 2%, Vb was taken as the final tapped volume, Vf. The tapped density, in g per mL, was calculated by the formula: Tapped Density=M/Vf
# [4] = media 0.01N HCl, 24 hours at 25° C.
# [5] = media 0.1N HCl, 24 hours at 25° C.
# [6] = media FaSSIF, 24 hours at 25° C.
# [7] = media FeSSIF, 24 hours at 25° C.
# [8] = media pH 1.2 (USP), 24 hours at 25° C.
# [9] = media pH 4.5 (USP), 24 hours at 25° C.
# [10] = media pH 6.8 (USP), 24 hours at 25° C.
# [11] = media pH 7.4 (USP), 24 hours at 25° C.
# [12] = media water, 24 hours at 25° C.
smiles,measurement,setting,value
"Cc1nc(-c2ccc(OCC(C)C)c(C#N)c2)sc1C(=O)O [Form G of U.S. Pat. No. 6,225,474, 2-(3-cyano-4-isobutoxyphenyl)-4-methyl-5-thiazolecarboxylic acid, reference compound]","Change in Mass (%) - ref, Desorption",[1]; Target % P/P0 0.0,−0.013%
same,"Change in Mass (%) - ref, Sorption",[1]; Target % P/P0 0.0,0.000%
same,"Change in Mass (%) - ref, Desorption",[1]; Target % P/P0 10.0,1.323%
same,"Change in Mass (%) - ref, Hysteresis",[1]; Target % P/P0 10.0,0.241%
same,"Change in Mass (%) - ref, Sorption",[1]; Target % P/P0 10.0,1.082%
same,"Change in Mass (%) - ref, Desorption",[1]; Target % P/P0 20.0,1.540%
same,"Change in Mass (%) - ref, Hysteresis",[1]; Target % P/P0 20.0,0.215%
same,"Change in Mass (%) - ref, Sorption",[1]; Target % P/P0 20.0,1.326%
same,"Change in Mass (%) - ref, Desorption",[1]; Target % P/P0 30.0,1.692%
same,"Change in Mass (%) - ref, Hysteresis",[1]; Target % P/P0 30.0,0.219%
same,"Change in Mass (%) - ref, Sorption",[1]; Target % P/P0 30.0,1.473%
same,"Change in Mass (%) - ref, Desorption",[1]; Target % P/P0 40.0,1.806%
same,"Change in Mass (%) - ref, Hysteresis",[1]; Target % P/P0 40.0,0.181%
same,"Change in Mass (%) - ref, Sorption",[1]; Target % P/P0 40.0,1.625%
same,"Change in Mass (%) - ref, Desorption",[1]; Target % P/P0 50.0,1.923%
same,"Change in Mass (%) - ref, Hysteresis",[1]; Target % P/P0 50.0,0.173%
same,"Change in Mass (%) - ref, Sorption",[1]; Target % P/P0 50.0,1.750%
same,"Change in Mass (%) - ref, Desorption",[1]; Target % P/P0 60.0,2.074%
same,"Change in Mass (%) - ref, Hysteresis",[1]; Target % P/P0 60.0,0.158%
same,"Change in Mass (%) - ref, Sorption",[1]; Target % P/P0 60.0,1.915%
same,"Change in Mass (%) - ref, Desorption",[1]; Target % P/P0 70.0,2.229%
same,"Change in Mass (%) - ref, Hysteresis",[1]; Target % P/P0 70.0,0.119%
same,"Change in Mass (%) - ref, Sorption",[1]; Target % P/P0 70.0,2.109%
same,"Change in Mass (%) - ref, Desorption",[1]; Target % P/P0 80.0,2.420%
same,"Change in Mass (%) - ref, Hysteresis",[1]; Target % P/P0 80.0,0.078%
same,"Change in Mass (%) - ref, Sorption",[1]; Target % P/P0 80.0,2.342%
same,"Change in Mass (%) - ref, Desorption",[1]; Target % P/P0 90.0,2.776%
same,"Change in Mass (%) - ref, Sorption",[1]; Target % P/P0 90.0,2.776%
same,solubility at 24 h,"[2]; FaSSIF, pH 6.5, fassif, media FaSSIF, 24 hours at 25° C.",0.448 mg/mL
same,solubility at 24 h,"[2]; FeSSIF, pH 5, fessif, media FeSSIF, 24 hours at 25° C.",0.132 mg/mL
same,pH,[2]; [4],1.987
same,pH,[2]; [5],0.945
same,pH,[2]; [6],6.384
same,pH,[2]; [7],4.965
same,pH,"[2]; media SGF, 24 hours at 25° C.",2.118
same,pH,[2]; [8],1.089
same,pH,[2]; [9],4.469
same,pH,[2]; [10],6.686
same,pH,[2]; [11],6.985
same,pH,"[2]; media water, shaken 24 hours at 25° C.",8.416
same,Visual solubility,[2]; [4],few particles
same,Visual solubility,[2]; [5],few particles
same,Visual solubility,[2]; [6],Turbid + few particles
same,Visual solubility,[2]; [7],Turbid + few particles
same,Visual solubility,"[2]; media SGF, 24 hours at 25° C.",few particles
same,Visual solubility,[2]; [8],few particles
same,HPLC solubility,[2]; [9],0.00011 mg/mL
same,Visual solubility,[2]; [9],few particles
same,HPLC solubility,[2]; [10],0.7649 mg/mL
same,Visual solubility,[2]; [10],Turbid + few particles
same,Visual solubility,[2]; [11],Slightly Turbid + few
same,HPLC solubility,[2]; [12],0.0298 mg/mL
same,Visual solubility,[2]; [12],Turbid + few particles
same,solubility at 24 h,"[2]; pH 7.4 USP buffer, pH 7.4, aqueous buffer, media pH 7.4 (USP), 24 hours at 25° C.",3.33 mg/mL
same,Bulk Density,[3],0.376 g/mL
same,Tapped Density,[3],0.511 g/mL
